This is an account of results in patent US4746737A, “Phenyl guanidinobenzoate derivatives which have protease inhibitory activity” (Kowa Co., Ltd., priority 1985, dated 1988).

Structures can show the parent of a compound that is named as a salt. Some results are limits rather than exact numbers.

One data set has as its target T1, trypsin (Bos taurus, UniProt P00760).
T1 sequence (P00760 24-246): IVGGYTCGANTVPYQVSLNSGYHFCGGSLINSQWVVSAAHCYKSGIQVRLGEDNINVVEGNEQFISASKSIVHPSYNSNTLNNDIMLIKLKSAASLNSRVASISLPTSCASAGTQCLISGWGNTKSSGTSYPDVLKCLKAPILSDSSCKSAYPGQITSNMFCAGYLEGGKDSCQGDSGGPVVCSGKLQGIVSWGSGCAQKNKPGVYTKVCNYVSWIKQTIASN
As to the kind of experiment: Trypsin inhibitory activity. It counts as biochemical. Conditions: pH 8.0, 37° C., substrate Boc-Phe-Ser-Arg-MCA; read-out: Concentration for 50% inhibition, trypsin. The procedure:
To 0.1 ml of a dimethylsulfoxide solution of a compound to be tested were added 0.3 ml of a 0.1M trishydrochloric acid buffer solution (pH 8.0) containing 10 mM of calcium chloride and 0.1 ml of a solution of 50 ng/ml of trypsin dissolved in the buffer solution, followed by incubation at 37° C. and 10 minutes. Thereafter, 5 microliters of a dimethylformamide solution of 10 mM Boc-Phe-Ser-Arg-MCA, followed by reaction at 37° C. for 30 minutes and addition of 0.5 ml of a 10% acetic acid solution to stop the reaction. The fluorecence of produced 7-amino-4-methylcumarin was measured by the use of a fluorometer (Fluorometer 650-40, by Hitachi Ltd.) under conditions of an excitation wavelength of 380 nm, a wavelength of the fluorescence of 460 nm and a slit width of 2 mm.
The inhibition rate of the respective compounds to be tested was calculated according to the following equation. [formula] in which T represents a measured value of "test specimen+enzyme+substrate", E represents a measured value of "enzyme+substrate", and S represents a measured value of "substrate".

Another data set relates to rat's blood. Nature of the data set: Anticoagulant activity (blood coagulation time by thrombelastograph). The note with it: compound 1×10^-4 M, thrombelastogram. As for the experimental part:
A compound to be tested was dissolved into a physiological saline solution so as to have the final concentration of 1×10^-4 M and then cooled down by ice. A 0.05 ml of the thus prepared solution was added with 0.5 ml of rat's blood, followed by subjecting the obtained solution to a thrombelastograph (manufactured by Hellige Company). The blood coagulation time (r+k value) was determined by the obtained thrombelastogram.

The nature of data set [1]: Acute toxicity (LD50), intravenous administration to mice. The note with it: mouse, in vivo.
The nature of another data set: Solubility. Conditions: pH 3.57. It is filed as physicochemical.
In another data set the target is thrombin (Homo sapiens, UniProt P00734). As to the kind of experiment: Thrombin inhibitory activity. It counts as biochemical. Conditions: pH 7.4, 37° C., substrate Boc-Val-Pro-Arg-MCA; read-out: Concentration for 50% inhibition, thrombin. As for the experimental part: To 0.1 ml of a dimethylsulfoxide solution of each of compounds to be tested were added 0.3 ml of a 0.1M phosphate buffer solution (pH 7.4) and 0.1 ml of a thrombin solution containing 100 mu/ml of thrombin in the buffer solution, followed by incubation at 37° C. for 10 minutes. To the solution was added […] of dimethylformamide solution of 10 mM Boc-Val-Pro-Arg-MCA for reaction at 37° C. for 30 minutes. Thereafter, the inhibition rate was calculated similar to the case of trypsin.

In general, LD50 refers to the dose at which mortality reaches 50%. Lower therefore signals a more toxic substance. As usually defined, the solubility is the dissolved amount per volume that the medium holds. Read a low solubility as little dissolved substance.

For `N=C(N)Nc1ccc(C(=O)Oc2ccc(C(=O)N3CCN(CC(N)=O)CC3)cc2)cc1` [Example 2, 4-[4-(carbamoylmethyl)piperazinocarbonyl]phenyl 4-guanidinobenzoate.dihydrochloride], the IC50 is 20 nM on trypsin and 200 nM at thrombin. Also, the “Blood coagulation time (r+k value)” value with rat's blood was determined as 26.7 ± 3.3 min. In addition, in data set [1], the LD50 fell in the range of 150 to 200 mg/kg. In addition, in the data set “Solubility”, the solubility was more than 100 mg/mL.

For the compound `N=C(N)Nc1ccc(C(=O)Oc2ccc(C(=O)N3CCN(CC(=O)N4CCOCC4)CC3)cc2)cc1` [Example 6, 4-[4-(Morpholynocarbonylmethyl)piperazinocarbonyl]phenyl 4-guanidinobenzoate.dihydrochloride], the IC50 at trypsin stood at 6 nM; on thrombin it was 400 nM. Further, the “Blood coagulation time (r+k value)” value in the data set with rat's blood worked out at 15.3 ± 3.1 min. In data set [1], the LD50 is 150 to 200 mg/kg.

On to `N=C(N)Nc1ccc(C(=O)Oc2ccc(C(=O)N3CCN(CC(=O)N4CCCC4)CC3)cc2)cc1` [Example 7, 4-[4-(Pyrrolidinocarbonylmethyl)piperazino-carbonyl]phenyl 4-guanidinobenzoate.dihydrochloride], for which the IC50 at trypsin came to 7 nM; at thrombin, 400 nM. The “Blood coagulation time (r+k value)” value in the data set on rat's blood worked out at 9.7 ± 0.3 min. Further, the 50% lethal dose (LD50) in data set [1] was in the range of 100 to 150 mg/kg.

`CC(C)NC(=O)CN1CCN(C(=O)c2ccc(OC(=O)c3ccc(NC(=N)N)cc3)cc2)CC1` [Example 9, 4-[4-(Isopropylcarbamoylmethyl)piperazinocarbonyl]phenyl 4-guanidinobenzoate.dihydrochloride]: the results for the IC50 at trypsin and on thrombin were 10 nM and 400 nM, respectively. In addition, in the data set on rat's blood, the “Blood coagulation time (r+k value)” value was determined as 18.5 min. Also, in data set [1], the LD50 fell in the range of 150 to 200 mg/kg.

As to `CCOC(=O)CN1CCN(C(=O)c2ccc(OC(=O)c3ccc(NC(=N)N)cc3)cc2)CC1` [Example 10, 4-[4-(Ethoxycarbonylmethyl)piperazinocarbonyl]phenyl 4-guanidinobenzoate.dihydrochloride], the values for the IC50 at trypsin and at thrombin were 20 nM and 400 nM, respectively. Moreover, in the data set on rat's blood, the “Blood coagulation time (r+k value)” value worked out at 10 min. Also, the LD50 in data set [1] was in the range of 150 to 200 mg/kg.

Regarding `COc1cc(C(=O)N2CCN(C(C)C)CC2)cc(OC)c1OC(=O)c1ccc(NC(=N)N)cc1` [Example 11, 4-(4-Isopropylpiperazinocarbonyl)-3,5-dimethoxyphenyl 4-gunanidinobenzoate.dihydrochloride], the IC50 on trypsin worked out at 400 nM. Also, the LD50 in data set [1] fell in the range of 50 to 100 mg/kg.

As for `N=C(N)Nc1ccc(C(=O)Oc2ccc(C(=O)N3CCN(CC(=O)N4CCCCC4)CC3)cc2)cc1` [Example 12, 4-[4-(Piperidinocarbonylmethyl)piperazinocarbonyl]phenyl 4-guanidinobenzoate.dihydrochloride], the IC50 at trypsin is 10 nM. In the data set on rat's blood, the “Blood coagulation time (r+k value)” value is 14.5 min. The compound also gave an LD50 in data set [1] of 100 to 150 mg/kg.

For the compound `CC(C)N1CCN(C(=O)c2ccc(OC(=O)c3ccc(NC(=N)N)cc3)cc2)CC1` [Example 13, 4-(4-Isopropylpiperazinocarbonyl)phenyl 4-guanidinobenzoate.dihydrochloride], the IC50 on trypsin stood at 20 nM. Further, in the data set with rat's blood, the “Blood coagulation time (r+k value)” value turned out to be 21 ± 3.9 min. The compound also displayed an LD50 in data set [1] of 50 to 100 mg/kg.

As for `CC(C(=O)NCCN(C)C)N1CCN(C(=O)c2ccc(OC(=O)c3ccc(NC(=N)N)cc3)cc2)CC1` (centres unmarked) [Example 22, 4-[4-[1-(2-Dimethylaminoethylcarbamoyl)ethyl]piperazinocarbonyl]phenyl 4-guanidinobenzoate.trihydrochloride], at trypsin, the IC50 is 40 nM. Also, in the data set on rat's blood, the “Blood coagulation time (r+k value)” value amounted to 20.5 ± 0.8 min.

In the case of `N=C(N)Nc1ccc(C(=O)Oc2ccc(C(=O)N3CCN(CCNC(=O)OCc4ccccc4)CC3)cc2)cc1` [Example 25, 4-[4-(2-Benzyloxycarbonylaminoethyl)piperazinocarbonyl]phenyl 4-guanidinobenzoate.dihydrochloride], the IC50 on trypsin stood at 20 nM. Also, the “Blood coagulation time (r+k value)” value in the data set on rat's blood was determined as 18.8 ± 1.2 min.

As to `N=C(N)Nc1ccc(C(=O)Oc2ccc(C(=O)N3CCN(CC(=O)O)CC3)cc2)cc1` [Example 27, 4-[4-(Guanidinobenzoyloxy)benzoyl]piperazino-acetic acid:dihydrochloride], the IC50 on trypsin stood at 40 nM. For the same compound, the “Blood coagulation time (r+k value)” value in the data set on rat's blood was determined as 19.2 ± 2.3 min.

As for `N=C(N)Nc1ccc(C(=O)Oc2ccc(C(=O)N3CCNCC3)cc2)cc1` [Example 29, 4-Piperazinocarbonylphenyl 4-guanidinobenzoate.dihydrochloride], the IC50 at trypsin was 30 nM. The “Blood coagulation time (r+k value)” value in the data set with rat's blood came to 34.8 ± 5.5 min.

`CN1CCN(C(=O)c2ccc(OC(=O)c3ccc(NC(=N)N)cc3)cc2)CC1` [Example 30, 4-(4-Methylpiperazinocarbonyl)phenyl 4-guanidinobenzoate.dihydrochloride]: the IC50 on trypsin amounted to 30 nM. Besides, in the data set with rat's blood, the “Blood coagulation time (r+k value)” value stood at 16.5 ± 1.6 min.

For `N=C(N)Nc1ccc(C(=O)Oc2ccc(C(=O)N3CCCN(CC(N)=O)CC3)cc2)cc1` [Example 33, 4-(4-Carbamoylmethylhomopiperazinocarbonyl)phenyl 4-guanidinobenzoate.dihydrochloride], the IC50 on trypsin came to 20 nM. Moreover, in the data set with rat's blood, the “Blood coagulation time (r+k value)” value came out at 32 ± 2.5 min.

Turning to `CN(C)CCNC(=O)c1ccc(OC(=O)c2ccc(NC(=N)N)cc2)cc1` [Example 34, 4-(N,N-Dimethylethylenediaminocarbonyl)phenyl 4-guanidinobenzoate.dihydrochloride], the IC50 on trypsin was 10 nM. In the data set with rat's blood, the “Blood coagulation time (r+k value)” value was 41.3 ± 3.9 min.

Take `CN(C)CCN(C)C(=O)c1ccc(OC(=O)c2ccc(NC(=N)N)cc2)cc1` [Example 37, 4-(N,N,N'-Trimethylethylenediaminocarbonyl)phenyl 4-guanidinobenzoate.dihydrochloride]: the IC50 at trypsin worked out at 40 nM. In the data set on rat's blood, the “Blood coagulation time (r+k value)” value came to 46.5 ± 4.5 min.

As for `CN(CCN(C)C(=O)c1ccc(OC(=O)c2ccc(NC(=N)N)cc2)cc1)CC(N)=O` [Example 38, 4-[(N-Carbamoylmethyl-N,N'-dimethylethylenediamino)carbonyl]phenyl 4-guanidinobenzoate.dihydrochloride], at trypsin, the IC50 is 30 nM. Besides, in the data set with rat's blood, the “Blood coagulation time (r+k value)” value was determined as 34.2 ± 1.6 min.

For `CN(C)C(=O)COC(=O)Cc1ccc(OC(=O)c2ccc(NC(=N)N)cc2)cc1` [Reference compound A, reference compound], the IC50 at trypsin was determined as 50 nM. Moreover, in the data set on rat's blood, the “Blood coagulation time (r+k value)” value worked out at 9.8 ± 0.6 min. The LD50 in data set [1] turned out to be 280 mg/kg.

In the case of `CCOC(=O)c1ccc(OC(=O)CCCCCNC(=N)N)cc1` [Reference compound B, reference compound], the IC50 at trypsin came out at 400 nM. The “Blood coagulation time (r+k value)” value in the data set on rat's blood came to 9.8 ± 1.6 min. In addition, in data set [1], the LD50 came out at 313 mg/kg.
